Assay results as given in US8466186B2, “Compounds” (Boehringer Ingelheim International GmbH, priority 2010, dated 2013).

Biological target: T1, recombinant human mPGES-1 (Homo sapiens, UniProt O14684)
T1 construct: made in house; host or cells: Rosetta E. coli (membrane/microsome fraction)
T1 sequence (O14684 1-152): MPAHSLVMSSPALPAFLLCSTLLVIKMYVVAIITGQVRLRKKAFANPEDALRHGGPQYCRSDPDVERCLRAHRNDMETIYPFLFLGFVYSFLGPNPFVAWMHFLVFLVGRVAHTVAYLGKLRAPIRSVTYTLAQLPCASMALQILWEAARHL
Assay: Assay A: mPGES-1 enzyme assay (HTRF detection of PGE2)
Type: biochemical
Settings: biological assay A; microsomes from E. coli expressing recombinant human mPGES-1; read-out: mPGES-1 inhibitory effect IC50
Excerpt: The aim of this assay is to determine the affinity of a test compound for the mPGES-1 enzyme.
• 1. Riendeau, D., R. Aspiotis, D. Ethier, Y. Gareau, E. Grimm, J. Guay, S. Guiral, H. Juteau, J. Mancini, N. Methot, J. Rubin, and R. Friesen, Inhibitors of the inducible microsomal prostaglandin E2 synthase (mPGES-1) derived from MK-886. Bioorg Med Chem Lett, 2005. 15(14): p. 3352-3355. • 2. Cote, B., L. Boulet, C. Brideau, D. Claveau, D. Ethier, R. Frenette, M. Gagnon, A. Giroux, J. Guay, S. Guiral, J. Mancini, E. Martins, F. Masse, N. Methot, D. Riendeau, J. Rubin, D. Xu, H. Yu, Y. Ducharme, and R. Friesen, Substituted phenanthrene imidazoles as potent, selective, and orally active mPGES-1 inhibitors. Bioorg Med Chem Lett, 2007. 17(24): p. 6816-6820. Assay A: mPGES-1 Enzyme Assay List of Reagents Used: • Glutathione (Sigma, G-4251) • Freeze culture in Rosetta E coli expression strain. • LB growth media with Ampillicillin (Amp) final concentration in culture 50 μg/mL • Chloroamphenicol stock 34 mg/mL (chloro) final concentration in culture 34 μg/mL • Sterile growth flasks for 500 mL-1 liter cultures • 0.1 M KP, buffer pH 7.4 • 9.25% HCl • PGH2 (0.25 mM) • Fe (II) Cl2 tetrahydrate, 99% (Sigma, 220229) • 384-well plate with compounds • 96-well plate, polypropylene (Thermo fast 96 skirted VWR) • 384-well plate polypropylene PCR plate (Greiner 785201) • Greiner 384-well plate pp (In vitro cat. no. 781280) • Adhesive sealing film for 96-well plates (Sigma-Aldrich) • Aluminium foil (PCR foil, 310-0030-127-471 from Labora) • PBS (GIBCO 14040) • Prostaglandin E2 Assay (Cisbio, cat. no. 62P2APEC) • Biomek FX robot (Beckman Coulter) • Biomek NX robot (Beckman Coulter) • Multidrop; micro or combi (ThermoLabsystems) • Plate reader: Safire2 (Tecan)
Microsomes from Rosetta E. coli bacteria expressing recombinant human mPGES-1 can be derived as described below:
Inoculate 5 mL LB with Amp and Chloro with bacteria from freeze culture. Incubate overnight at 37° C. with 200 rpm. Thereafter, inoculate 500-800 mL LB containing Amp and Chloro with the 5 mL on culture and grow to OD640 of 0.6-0.8. Chill the culture to +4° C. before induction. Induce the culture with IPTG at a final concentration of 400 μM. Express the protein at room temp 18-23° C. with 200 rpm shaking overnight.
The following steps can be performed on the following day: • 1. Spin down the cells in 250 mL centrifuge flasks for 15 min at 7000 rpm • 2. Dissolve the pellet from 250 mL culture in 12.5 mL homogenization buffer • 3. Disintegrate the cells by sonication, 4×10 seconds at 35% amplitude • 4. Add 2.5 mL MgCl2 (100 mM) and DNase 12.5 μL (0.8 mg/mL) and incubate on ice for 30 min • 5. Spin down the bacteria debris and save the supernatant, 7000 rpm for 15 min • 6. Isolate the protein containing membranes in the supernatant by ultracentrifugation 45000×g for 1 hour. • 7. Discard the supernatant and dissolve the pellet in 20 mM KPi buffer and aliquot the enzyme and store aliquots at −80° C.
Before each experiment is performed an aliquot of the enzyme is thawed and it can then be dissolved in 0.1 M KP, pH 7.4 buffer containing 2.5 mM GSH. 50 μL of this enzyme solution is subsequently dispensed in a 384-well plate at room temperature. 0.5 μL of the inhibitor dissolved in DMSO is thereafter added to each well and incubated for 25 minutes at room temperature. Subsequently, 2 μL of PGH2 dissolved in an appropriate solvent is added to each well and after one minute at room temperature, the acidified stop solution containing FeCl2 is added. 4 μL of the total volume is transferred to a separate plate and diluted 750-fold in two separate steps before quantification of PGE2.
In order to quantitate the amount of PGE2 that has been formed, a homogenous time resolved fluorescent (HTRF) detection of PGE2 can be performed by the use of a commercially available kit from CisBio essentially according to the manufacturer's protocol. […]

| Compound | IC50 [nM] |
| --- | --- |
| Cn1c(Nc2cc(CNC(=O)C(C)(N)C(F)(F)F)ccc2Cl)nc2cc(Cl)c(N3CCCC(C(F)(F)F)C3)cc21 (centres unmarked) [Example 1, 2-Amino-N-{4-chloro-3-[5-chloro-1-methyl-6-(3-(trifluoromethyl)piperidin-1-yl)-1H-benzo[d]imidazol-2-ylamino]benzyl}-3,3,3-trifluoro-2-methylpropanamide] | 2.5 |
| CC(C)(C)C(=O)NCc1ccc(Cl)c(Nc2nc3cc(N4CCC(F)(F)C4)c(Cl)cc3[nH]2)c1 [Example 2, N-{4-Chloro-3-[6-chloro-5-(3,3-difluoropyrrolidin-1-yl)-1H-benzo[d]imidazol-2-ylamino]benzyl}-2,2-dimethyl-propionamide] | 19 |
| CN(C)CC1CCN(c2cc3[nH]c(Nc4cc(CNC(=O)C(C)(C)C)ccc4Cl)nc3cc2Cl)C1 (centres unmarked) [Example 3, N-{4-Chloro-3-[5-chloro-6-(3-dimethylaminomethyl-pyrrolidin-1-yl)-1H-benzimidazol-2-ylamino]-benzyl}-2,2-dimethyl-propionamide] | 715 |
| CC(C)(C)C(=O)NCc1ccc(Cl)c(Nc2nc3cc(Cl)c(N4CCC5(CC5)C4)cc3[nH]2)c1 [Example 4, N-{3-[6-(5-Aza-spiro[2.4]hept-5-yl)-5-chloro-1H-benzimidazol-2-ylamino]-4-chloro-benzyl}-2,2-dimethyl-propionamide] | 24 |
| Cn1c(Nc2c(Cl)ccc(CNC(=O)C(C)(C)C)c2Cl)nc2cc(Cl)c(N3CCC(C(F)(F)F)CC3)cc21 [Example 5, N-{2,4-Dichloro-3-[5-chloro-1-methyl-6-(4-trifluoromethyl-piperidin-1-yl)-1H-benzimidazol-2-ylamino]-benzyl}-2,2-dimethyl-propionamide] | 3.8 |
| CN(C)C(=O)C1CCCN1c1cc2[nH]c(Nc3cc(CNC(=O)C(C)(C)C)ccc3Cl)nc2cc1Cl (centres unmarked) [Example 6, N-{4-Chloro-3-[5-chloro-6-(2-dimethylcarbamoyl-pyrrolidin-1-yl)-1H-benzimidazol-2-ylamino]-benzyl}-2,2-dimethyl-propionamide] | 215 |
| CN(C)CC1CCCN1c1cc2[nH]c(Nc3cc(CNC(=O)C(C)(C)C)ccc3Cl)nc2cc1Cl (centres unmarked) [Example 7, N-{4-Chloro-3-[5-chloro-6-(2-dimethylaminomethyl-pyrrolidin-1-yl)-1H-benzimidazol-2-ylamino]-benzyl}-2,2-dimethyl-propionamide] | 74 |
| CC(C)(C)C(=O)NCc1ccc(Cl)c(Nc2nc3cc(Cl)c(N4CCC(C#N)C4)cc3[nH]2)c1 (centres unmarked) [Example 8, N-{4-Chloro-3-[5-chloro-6-(3-cyano-pyrrolidin-1-yl)-1H-benzimidazol-2-ylamino]-benzyl}-2,2-dimethyl-propionamide] | 106 |
| O=C(NCc1ccc(Cl)c(Nc2nc3cc(Cl)c(N4CCC[C@@H]4CO)cc3[nH]2)c1)C1(C(F)(F)F)CC1 [Example 9, (R)—N-{4-Chloro-3-[5-chloro-6-(2-hydroxymethyl-pyrrolidin-1-yl)-1H-benzimidazol-2-ylamino]-benzyl}-1-trifluoromethyl-cyclopropanecarboxamide] | 143 |
| Cn1c(Nc2cc(CNC(=O)C3(C(F)(F)F)CC3)ccc2Cl)nc2cc(Cl)c(N3CCOCC3)cc21 [Example 10] | 31 |
| CN1CCN(c2cc3c(cc2Cl)nc(Nc2cc(CNC(=O)C4(C(F)(F)F)CC4)ccc2Cl)n3C)CC1 [Example 11, N-{4-Chloro-3-[5-chloro-1-methyl-6-(4-methyl-piperazin-1-yl)-1H-benzimidazol-2-ylamino]-benzyl}-1-trifluoromethyl-cyclopropanecarboxamide] | 140 |
| CC(C(=O)NCc1ccc(Cl)c(Nc2nc3cc(Cl)c(N4CCCC(C(F)(F)F)C4)cc3n2C)c1)C(F)(F)F (centres unmarked) [Example 13] | 2.6 |
| Cn1c(Nc2cc(CNC(=O)C(C)(O)C(F)(F)F)ccc2Cl)nc2cc(Cl)c(N3CCCC(C(F)(F)F)C3)cc21 (centres unmarked) [Example 14] | 4.8 |
| Cn1c(Nc2cc(CNC(=O)C(C)(F)F)ccc2Cl)nc2cc(Cl)c(N3CCCC(C(F)(F)F)C3)cc21 (centres unmarked) [Example 15] | 3 |
| CCC(C)(CC)C(=O)NCc1ccc(Cl)c(Nc2nc3cc(N4CCCC4)ccc3[nH]2)c1 [Example 16] | 15 |
| CC(C)(C(=O)NCc1ccc(Cl)c(Nc2nc3cc(N4CCCC4)ccc3[nH]2)c1)C(F)(F)F [Example 17] | 24 |

| Compound | IC50 [nM] |
| --- | --- |
| CCCC(C)(C)C(=O)NCc1ccc(Cl)c(Nc2nc3cc(N4CCCC4)ccc3[nH]2)c1 [Example 18] | 79 |
| CC1CCCCC1C(=O)NCc1ccc(Cl)c(Nc2nc3cc(N4CCCC4)ccc3[nH]2)c1 (centres unmarked) [Example 19] | 52 |
| CC(C)(C)C(=O)NCc1ccc(Cl)c(Nc2nc3cc(N4CCCC4)ccc3[nH]2)c1 [Example 20] | > 100 |
| O=C(NCc1ccc(Cl)c(Nc2nc3cc(N4CCCC4)ccc3[nH]2)c1)c1ccc(OCc2ccccc2)cc1 [Example 21] | 30 |
| CC1(C(=O)NCc2ccc(Cl)c(Nc3nc4cc(N5CCCC5)ccc4[nH]3)c2)CCCC1 [Example 28] | 24 |
| O=S(=O)(NCc1ccc(Cl)c(Nc2nc3cc(N4CCCC4)ccc3[nH]2)c1)c1ccco1 [Example 29] | 105 |
| O=S(=O)(NCc1ccc(Cl)c(Nc2nc3ccc(N4CCCC4)cc3[nH]2)c1)C1CC1 [Example 30, N-{4-Chloro-3-[5-(pyrrolidin-1-yl)-1H-benzimidazol-2-ylamino]-benzyl}cyclopropylsulfonamide] | 300 |
| Cn1c(Nc2cc(CNC(=O)c3c(Cl)cncc3Cl)ccc2Cl)nc2cc(Cl)c(N3CCCC(C(F)(F)F)C3)cc21 (centres unmarked) [Example 54] | 6.6 |
| Cn1c(Nc2cc(CNC(=O)C(N)C(F)(F)F)ccc2Cl)nc2cc(Cl)c(N3CCCC(C(F)(F)F)C3)cc21 (centres unmarked) [Example 65] | 15 |
| Cn1c(Nc2cc(CNC(=O)C3(C)COC3)ccc2Cl)nc2cc(Cl)c(N3CCCC(C(F)(F)F)C3)cc21 (centres unmarked) [Example 66] | 10 |
| Cn1c(Nc2cc(CNC(=O)c3c(Cl)cccc3Cl)ccc2Cl)nc2cc(Cl)c(N3CCCC(C(F)(F)F)C3)cc21 (centres unmarked) [Example 68] | 4 |
| Cn1c(Nc2cc(CNC(=O)c3c(F)cccc3C(F)(F)F)ccc2Cl)nc2cc(Cl)c(N3CCCC(C(F)(F)F)C3)cc21 (centres unmarked) [Example 69] | 9 |
| Cn1c(Nc2cc(CNC(=O)C3(C(F)(F)F)CC3)ccc2Cl)nc2cc(Cl)c(N3CCC(C(F)(F)F)CC3)cc21 [Example 71, N-{4-Chloro-3-[5-chloro-1-methyl-6-(4-trifluoromethyl-piperidin-1-yl)-1H-benzimidazol-2-ylamino]benzyl}-1-trifluoromethyl-cyclopropaneamide] | 2.5 |
| O=C(NCc1ccc(Cl)c(Nc2nc3cc(Cl)c(N4CCCC(C(F)(F)F)C4)cc3[nH]2)c1)C1(C(F)(F)F)CC1 (centres unmarked) [Example 72] | 11 |
| CC(=O)N1CCN(c2cc3c(cc2Cl)nc(Nc2cc(CNC(=O)C4(C(F)(F)F)CC4)ccc2Cl)n3C)CC1 [Example 73] | 61 |
| CC(=O)N1CCN(c2cc3[nH]c(Nc4cc(CNC(=O)C5(C(F)(F)F)CC5)ccc4Cl)nc3cc2Cl)CC1 [Example 74] | 144 |
